Here are results for four compounds from patent publication US20250313553A1, “ANNULATED 2-AMINO-3-CYANO THIOPHENES AND DERIVATIVES FOR THE TREATMENT OF CANCER” (Boehringer Ingelheim Int'l GmbH Corp., priority 2021, published 2025).

Molecules are shown by their SMILES. Converted amounts (≈) assume the structure as drawn. Where two headings read alike, the source gives them in different places. Some results are limits rather than exact numbers.

In one series the target is T1, KRAS (G12V) and SOS1 (Homo sapiens, UniProt P01116, C118S/G12V).
T1 construct: KRAS (G12V) 1-169, N-terminal 6His-tag for purification; 6His (N, cleaved yes); TEV cleavage site
T1 sequence (P01116 1-169 isoform P01116-2 G12V/C118S): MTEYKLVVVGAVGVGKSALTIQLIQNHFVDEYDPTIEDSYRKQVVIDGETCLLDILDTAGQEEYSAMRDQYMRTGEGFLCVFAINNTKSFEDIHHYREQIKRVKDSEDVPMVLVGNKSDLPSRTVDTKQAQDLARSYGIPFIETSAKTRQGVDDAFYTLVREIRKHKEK
Put plainly: KRAS::SOS1 AlphaScreen binding assay, KRAS G12V. The method, then: (§1) Low IC50 values in this assay setting are indicative of strong inhibition of protein-protein interaction between SOS1 and KRAS:
(§2) These assays measure the inhibitory effect of compounds on KRAS mutant protein-protein interactions using the Alpha Screen technology by Perkin Elmer.
(§3) For the chosen highest assay concentration of 100 μM, 150 nL of compound solution are transferred from a 10 mM DMSO compound stock solution. A series of eleven fivefold dilutions per compound are transferred to the assay plate, compound dilutions are tested in duplicates. DMSO are added as backfill to a total volume of 150 nL.
(§4) The assays run on a fully automated robotic system in a darkened room below 100 Lux. To 150 nl of compound dilution 10 μl of a mix including KRAS mutant protein, SOS1 (final assay concentrations see above) and GDP nucleotide (Sigma G7127; final assay concentration 10 μM) in assay buffer (1×PBS, 0.1% BSA, 0.05% Tween 20) are added into columns 1-24. After 30 minutes incubation time 5 μl of Alpha Screen bead mix in assay buffer are added into columns 1-23.
(§5) Plates are kept at room temperature in a darkened incubator. After an additional 60 minutes incubation time the signal is measured in a PerkinElmer Envision HTS Multilabel Reader using the AlphaScreen specs from PerkinElmer.
(§6) IC50 values are calculated and analyzed with Boehringer Ingelheim's MEGALAB IC50 application using a 4 parametric logistic model.

The next series addresses T2, KRAS (G12C) and SOS1 (Homo sapiens, UniProt P01116, C118S/C51S/C80L/G12C).
T2 construct: KRAS (G12C) 1-169, N-terminal 6His-tag for purification; 6His (N, cleaved yes)
Put plainly: KRAS::SOS1 AlphaScreen binding assay, KRAS G12C. The procedure:
as §1, §2, §3, §4, §5, §6
On the technique in general: Alpha assays give light when donor and acceptor beads are brought close together.

For another series, the target named is KRAS G12V Ba/F3 cells (Homo sapiens, UniProt P01116, G12V, cells depend on it). Put plainly: Ba/F3 proliferation assay, KRAS G12V. The format is cell-based. Conditions: 72 h, AlamarBlue, read-out: KRAS G12V Ba/F3 IC50. The procedure: (§7) To generate KRASG12-dependent Ba/F3 models, Ba/F3 cells are transduced with retroviruses containing vectors that harbor KRASG12 isoforms. Platinum-E cells (Cell Biolabs) are used for retrovirus packaging. Retrovirus is added to Ba/F3 cells. To ensure infection, 4 μg/mL polybrene is added and cells are spinfected. […] Cells with an infection efficiency of 10% to 20% are further cultivated and puromycin selection with 1 μg/mL is initiated. As a control, parental Ba/F3 cells are used to show selection status. Selection is considered successful when parental Ba/F3 cells cultures died. To evaluate the transforming potential of KRASG12 mutations, the growth medium is no longer supplemented with IL-3. Ba/F3 cells harboring the empty vector are used as a control. Approximately ten days before conducting the experiments, puromycin is left out.
Chain of KRAS G12V Ba/F3 cells (P01116 whole entry G12V, canonical isoform): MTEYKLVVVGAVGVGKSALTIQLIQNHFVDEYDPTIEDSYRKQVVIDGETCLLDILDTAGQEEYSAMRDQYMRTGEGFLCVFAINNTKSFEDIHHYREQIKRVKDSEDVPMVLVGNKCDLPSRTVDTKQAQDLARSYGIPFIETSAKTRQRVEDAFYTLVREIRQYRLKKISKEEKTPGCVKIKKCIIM
(§8) All treatments are performed in technical duplicates. […] AlamarBlue™ (ThermoFisher), a viability stain, is added and fluorescence measured in the PerkinElmer Envision HTS Multilabel Reader. The raw data are imported into and analyzed with the Boehringer Ingelheim proprietary software MegaLab (curve fitting based on the program PRISM, GraphPad Inc.).
(Resazurin is reduced to fluorescent resorufin, in cell work by metabolically active cells.)

Series [1] can be described thus: Metabolic (microsomal) stability assay, HLM. The format is in vitro ADME. The following applies: human liver microsomes, 1 μM, predicted clearance as percent of liver blood flow. The method, then: The metabolic degradation of the test compound is assayed at 37° C. with pooled liver microsomes (mouse (MLM), rat (RLM) or human (HLM)). The final incubation volume of 48 μL per time point contains TRIS buffer (pH 7.5; 0.1 M), magnesium chloride (6.5 mM), microsomal protein (0.5 mg/mL for mouse/rat, 1 mg/mL for human specimens) and the test compound at a final concentration of 1 μM. Following a short preincubation period at 37° C., the reactions are initiated by addition of 12 μL beta-nicotinamide adenine dinucleotide phosphate, reduced form (NADPH, 10 mM) and terminated by transferring an aliquot into solvent after different time points (0, 5, 15, 30, 60 min). Additionally, the NADPH-independent degradation is monitored in incubations without NADPH, terminated at the last time point by addition of acetonitrile. The quenched incubations are pelleted by centrifugation (4,000 rpm, 15 min). An aliquot of the supernatant is assayed by LC-MS/MS to quantify the concentration of parent compound in the individual samples.
In vitro intrinsic clearance (CLint, in vitro) is calculated from the time course of the disappearance of the test drug during the microsomal incubation. Each plot is fitted to the first-order elimination rate constant as C(t)=C0*exp(−ke*t), where C(t) and C0 are the concentration of unchanged test drug at incubation time t and that at preincubation and ke is the disappearance rate constant of the unchanged drug. Subsequently, CLint, in vitro (μL min^−1·amount protein) values are converted to predicted CLint, in vivo (mL min^−1·kg^−1) from incubation parameters according to the equation CLint, in vivo=CLint, in vitro×(incubation volume (ml)/amount protein (mg))×(amount protein (mg)/g liver tissue)×(liver weight/body wt.). For better across species comparison the predicted clearance is expressed as percent of the liver blood flow [% QH](mL min^−1·kg^−1) in the individual species. In general, high stability (corresponding to low % QH) of the compounds across species is desired.

Series [2] has as its system ERK phosphorylation in NCI-H358 (KRAS G12C). Put plainly: ERK phosphorylation assay (assay 1, NCI-H358). In kind it is cell-based. Conditions: Homo sapiens; NCI-H358, assay 1, 1 h incubation; read-out: IC50 H358 pERK. The method, then: Low IC50 values in this assay setting are indicative of high potency of the compounds according to the invention. […]
The cells are incubated for 1 h at room temperature and then incubated overnight in an incubator at 37° C. and 5% CO2 in a humidified atmosphere. 60 nL compound solution (10 mM DMSO stock solution) is then added using a Labcyte Echo 550 device. […] After 20 min of incubation at room temperature with shaking, 6 μL of each lysate sample is transferred to a 384-well Proxiplate and analyzed for pERK (Thr202/Tyr204) with the AlphaLISA SureFire Ultra pERK1/2 (Thr202/Tyr204) Assay Kit. 3 μL Acceptor Mix and 3 μL Donor Mix are added under subdued light and incubated for 2 h at room temperature in the dark, before the signal is measured on a PerkinElmer Envision HTS Multilabel Reader. The raw data are imported into and analyzed with the Boehringer Ingelheim proprietary software MegaLab (curve fitting based on the program PRISM, GraphPad Inc.).

Another series addresses KRAS G12D Ba/F3 cells (Homo sapiens, UniProt P01116, G12D, cells depend on it). As to the kind of experiment: Ba/F3 proliferation assay, KRAS G12D. In kind it is cell-based. The following applies: 72 h, AlamarBlue, read-out: KRAS G12D Ba/F3 IC50. The procedure: as §7, §8
A short description of series [3]: Solubility measurement (DMSO solution precipitation method). The format is physicochemical. Conditions: aqueous buffer, kinetic from dmso stock. The procedure:
The DMSO solution is diluted with an aqueous medium (McIlvaine buffer with pH=4.5 or 6.8) to a final concentration of 250 μM. After 24 h of shaking at ambient temperature a potentially formed precipitate is removed by filtration. The concentration of the test compound in the filtrate is determined by LC-UV methods by calibrating the signal to the signal of a reference solution with complete dissolution of the test compound in acetonitrile/water (1:1) with known concentration.

The next series has as its target KRAS G12C Ba/F3 cells (Homo sapiens, UniProt P01116, G12C, cells depend on it). As to the kind of experiment: Ba/F3 proliferation assay, KRAS G12C. The format is cell-based. Conditions: 72 h, AlamarBlue, read-out: KRAS G12C Ba/F3 IC50. The procedure: as §7, §8
For a further series, the target named is T3, KRAS (G12D) and SOS1 (Homo sapiens, UniProt P01116, G12D).
T3 construct: KRAS (G12D) 1-169, N-terminal 6His-tag; 6His (N); purchased Xtal BioStructures, Inc. (KRAS G12D); Viva Biotech Ltd (SOS1)
T3 sequence (P01116 1-169 isoform P01116-2 G12D): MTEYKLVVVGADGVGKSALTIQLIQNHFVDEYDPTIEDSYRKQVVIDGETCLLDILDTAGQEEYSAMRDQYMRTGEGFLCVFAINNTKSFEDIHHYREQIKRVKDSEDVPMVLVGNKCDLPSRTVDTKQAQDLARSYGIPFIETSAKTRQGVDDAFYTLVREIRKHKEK
Put plainly: KRAS::SOS1 AlphaScreen binding assay, KRAS G12D. The method, then: as §1, §2, §3, §4, §5, §6

Where [4] appears, read: McIlvaine buffer pH 4.5, 24 h, read-out: solubility pH 4.5.
The mark [5] stands for this setting: McIlvaine buffer pH 6.8, 24 h, read-out: solubility pH 6.8.

T2 sequence (P01116 1-169 isoform P01116-2 G12C/C51S/C80L/C118S): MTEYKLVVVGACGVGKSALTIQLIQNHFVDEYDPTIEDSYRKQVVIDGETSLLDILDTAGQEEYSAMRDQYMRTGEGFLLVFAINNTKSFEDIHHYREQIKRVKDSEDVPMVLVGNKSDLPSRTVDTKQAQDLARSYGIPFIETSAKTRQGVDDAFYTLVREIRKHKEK
Chain of KRAS G12C Ba/F3 cells (P01116 whole entry G12C): as the sequence (P01116 whole entry G12V, canonical isoform) above, with V12C counted along it
Chain of KRAS G12D Ba/F3 cells (P01116 whole entry G12D): as the sequence (P01116 whole entry G12V, canonical isoform) above, with V12D counted along it

The term IC50 denotes the concentration that inhibits the measured activity by half. Broadly, the solubility is the dissolved amount per volume that the medium holds. For `C[C@H]1CN(CC2CC2)CCCN1c1nccc(-c2noc([C@@]3(C)CCCc4sc(N)c(C#N)c43)n2)n1` [Example V-3], the half-maximal inhibitory concentration (IC50) was determined as 5 nM at KRAS (G12V) and SOS1; 6 nM at KRAS (G12C) and SOS1; 24 nM in series [2]; 3 nM on KRAS (G12D) and SOS1. The GI50 at KRAS G12V Ba/F3 cells was 516 nM; at KRAS G12D Ba/F3 cells, 214 nM; at KRAS G12C Ba/F3 cells it was 409 nM. The “HLM QH” value in [1] is given as greater than 95%. In addition, the solubility at 24 h in series [3] (setting [4]) is greater than 100 µg/mL; in [3] (setting [5]), 82 µg/mL (≈ 162 µM).
Regarding `C[C@H](Oc1ccnc(-c2cc([C@@]3(C)CCCc4sc(N)c(C#N)c43)on2)n1)[C@@H]1CCCN1C` [Example V-24], the IC50 at KRAS (G12C) and SOS1 worked out at 4 nM; in [2], 19 nM; on KRAS (G12D) and SOS1, 2 nM. Also, the GI50 on KRAS G12D Ba/F3 cells is 108 nM; on KRAS G12C Ba/F3 cells it was 105 nM. In addition, the solubility at 24 h in [3] (setting [4]) and in series [3] (setting [5]) was greater than 110 µg/mL in each case.
Take `C[C@H](Oc1ccnc(-c2cc([C@@]3(C)CCCc4sc(N)c(C#N)c43)no2)n1)[C@@H]1CCCN1C` [Example V-25]: the IC50 on KRAS (G12V) and SOS1 stood at 11 nM; on KRAS (G12C) and SOS1, 14 nM; in [2], 100 nM; on KRAS (G12D) and SOS1 it was 9 nM. The GI50 came out at 6060 nM on KRAS G12V Ba/F3 cells, 961 nM at KRAS G12D Ba/F3 cells and 940 nM on KRAS G12C Ba/F3 cells. In addition, the solubility at 24 h in series [3] (setting [4]) was greater than 110 µg/mL; in series [3] (setting [5]) it was greater than 100 µg/mL.
Regarding `CC(C)N1CCCN(c2nccc(-c3cc([C@@]4(C)CCCc5sc(N)c(C#N)c54)on3)n2)[C@@H](C)C1` [Example V-26], the IC50 worked out at 7 nM on KRAS (G12C) and SOS1; 2 nM at KRAS (G12D) and SOS1. The GI50 on KRAS G12D Ba/F3 cells amounted to 79 nM; on KRAS G12C Ba/F3 cells, 95 nM. Besides, the solubility at 24 h in series [3] (setting [4]) is greater than 100 µg/mL; in [3] (setting [5]), 95 µg/mL (≈ 193 µM).
